Source: patent US20110152221A1, “PAK1 Agonists and Methods of Use” (THE BOARD OF TRUSTEES OF THE UNIVERSITY OF ILLINOIS, priority 2008, published 2011)

Experiments:
[1] = target: T1, Pak1 purified from cardiac muscle (Bos taurus, UniProt Q08E52); assay: Pak1 kinase assay (autophosphorylation, [γ32P] ATP, autoradiography); format: biochemical, bovine; conditions: for autophosphorylation of Pak1: concentration not given
T1 construct: from tissue; host or cells: bovine ventricle (cardiac) muscle
Method: Preparation of Muscle Sample. Frozen bovine ventricle muscle (200 g) was cut into small pieces and homogenized in a blender containing 1 liter homogenization buffer (50 mM Tris base, 5 mM EDTA, 2 mM EGTA, 1 mM DTT, 0.5 mM benzamidine, 0.1 mM PMSF, pH 7.2). The homogenized muscle sample was centrifuged at 4500 g for 30 minutes. The supernatant fraction was saved and precipitated with ammonium sulfate (NH4)2SO4 at concentration 25% and 50% (w/v). Precipitates formed by (NH4)2SO4 addition between concentration 25% (w/v) and 50% (w/v) were saved and dialyzed against the homogenization buffer. After dialysis, the sample was filtered and lyophilized. For purification of Pak1 from smaller amounts of sample, the tissues or cells were homogenized in mammalian extraction buffer (50 mM Tris, pH 7.5; 150 mM NaCl; 0.1% Nonide P40; Complete Protease inhibitor cocktail tablets [Roche Diagnostics, cat # 11 873 580 001]). The ratio of tissue:buffer was about 1:5 (v/v). The homogenate was centrifuged in a bench-top centrifuge at 4° C. The supernatant fraction was saved for direct application onto the affinity column.
Affinity Chromatography. The column was first washed with 20 ml equilibration buffer (20 mM Tris, pH 7.5; 0.1 M NaCl; 0.1 mM EDTA). Decoy peptide (3 mg) was applied to the column to saturate the matrix with the peptide. The muscle sample (the lyophilized extract) was dissolved in buffer (20 mM Tris, pH 7.5; 0.1 M NaCl; 0.1 mM EDTA) containing protease inhibitor cocktail tablets. The sample was loaded onto the affinity column and then washed with 20 ml washing buffer (20 mM Tris, pH 7.5; 0.1 M NaCl; 0.1 mM EDTA; 0.05% Tween-20). The Pak1 bound to the gel was eluted with equilibration buffer containing HA peptide ([…]) (SEQ ID NO: 2) at 1 mg/ml. HA peptide was removed from the sample by dialysis in buffer containing 20 mM HEPES, 5 mM NaCl, pH 7.2. The bound Pak1 could also be eluted with 5 ml glycine buffer, pH 2.5 (50 mM glycine-HCl; 0.1% Triton X-100; 0.15 M NaCl).
Kinase Assay. Pak1 kinase activity was assayed in the following reaction buffer: 50 mM HEPES, pH 7.3, 10 mM MgCl2, 1 mM DTT, 0.05% Triton X-100) with 10 μCi of [γ32P] ATP (Perkin Elma. [γ-32P]-Adenosine 5′-triphosphate, Specific Activity: 3000 Ci (111TBq)/mmole, 50 mM Tricine (pH 7.6), Concentration: 5 mCi/mL, Catal NEG502H250UC) at 37° C. for 2 h. The kinase reaction was stopped by adding SDS sample buffer followed by boiling for 5 min. In view of reports of sphingosine-1 inducing an increase in Pak1 and Pak2 activity in vitro (Bokoch 1998, p 8137-8144; Roig 2001, p 195-199), the effect of sphingosine and sphingosine-1 phosphate on Pak1 autophosphorylation was also tested (FIG. 3A). The tested agonists (obtained from Calbiochem) included the following: C2 ceramide (N-acetyl-D-erythro-sphingosine), C6 ceramide (N-Hexanoyl-D-erythro-sphingosine) and safingol (Dihydro-L-threo-sphingosine). D-sphingosine (S 6879) and sphingosine 1-phosphate (S 9666) were purchased from Sigma. Sphingosines were dissolved in DMSO. The total reaction volume was 20 μl. DMSO (2 μl) was included in each reaction including the control. Incorporation of 32P from gamma 32P into Pak1 was directly detected by autoradiography after resolve the in vitro reaction products on SDS PAGE. […] When the sphingosine phosphate concentration increased to 100 and 200 μM, there was an increase in Pak1 autophosphorylation. In purified Pak1 sample, a 48 kD Pak1 degradation products can sometimes be detected (FIG. 1A, lane 3). When Pak1 activity increased, phosphorylation of the degradation products increased accordingly (FIG. 3).
Autophosphorylation of Pak1, which correlates with its activity, provided a measure of Pak-1 enzyme function. […] In all the in vitro assays, we used 4 μg of Pak1 protein. The smaller band (˜48 kD) that could be Pak1 degradation products was also phosphorylated. […] The decoy peptide contains Pak1 autophosphorylation sites. […]

[2] = tested on: cardiac troponin in cardiomyocytes / ventricle myocytes; assay: Dephosphorylation of cardiac troponin in cardiomyocytes; format: cell-based
Source text: FTY720 is a structural analogue of sphingosine-1 and C2/C6-ceramide. […] Therefore, like C2- and C6-ceramides, FTY720 can serve as a β-blocker competitor for ischemic heart diseases including angina and systolic heart failure. The anti-(β) adrenergic effect of FTY720 is through activation of Pak1 in the heart. Our current observation further enforced by our previous work on Pak1 function related to heart diseases. Our studies also indicate that even better drug candidates can be designed or screened by testing their effects on Pak1 activation or inhibition using C2/C6 ceramides and FTY720 as prototypes.

PP2A = conditions: Dobrowsky 1993; cited from earlier work
L-type Ca2+ channel = conditions: different types of cells; Chik 1999, 2004; cited from earlier work
T-cells = conditions: O'Byrne 2000; cited from earlier work
heart = conditions: Furuya 2001; Lecour 2006; cited from earlier work
heart rate = conditions: same or lower dose than used in clinical studies for organ transplantation and multiple sclerosis; cited from earlier work
[3] = target: T2, decoy peptide (YNSKKTSNSQKYMSFTDKSA) (amino acids 131-150 of SEQ ID NO: 1)
T2 chain: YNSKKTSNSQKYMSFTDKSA

T1 sequence (Q08E52 whole entry): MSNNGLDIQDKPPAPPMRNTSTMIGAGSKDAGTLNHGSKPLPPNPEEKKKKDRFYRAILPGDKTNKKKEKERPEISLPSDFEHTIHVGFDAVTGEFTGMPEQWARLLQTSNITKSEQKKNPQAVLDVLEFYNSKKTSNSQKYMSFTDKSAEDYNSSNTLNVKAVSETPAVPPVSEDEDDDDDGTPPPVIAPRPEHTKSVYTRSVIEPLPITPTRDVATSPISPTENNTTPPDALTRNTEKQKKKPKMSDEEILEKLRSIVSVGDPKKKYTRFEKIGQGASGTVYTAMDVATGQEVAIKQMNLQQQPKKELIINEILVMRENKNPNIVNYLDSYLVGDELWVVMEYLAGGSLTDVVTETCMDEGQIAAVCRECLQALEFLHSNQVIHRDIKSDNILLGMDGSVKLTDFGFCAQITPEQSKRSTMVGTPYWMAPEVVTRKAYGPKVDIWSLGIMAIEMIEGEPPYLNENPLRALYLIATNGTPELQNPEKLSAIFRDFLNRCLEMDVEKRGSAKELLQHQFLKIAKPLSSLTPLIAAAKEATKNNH

CCCCCCCCCCCCC/C=C/[C@@H](O)[C@H](CO)NC(C)=O [C2 ceramide, N-acetyl-D-erythro-sphingosine]
effect activating Pak1 compared with sphingosine-1 [1]: stronger effect than sphingosine-1 | autophosphorylation of Pak1 ([1]; 37° C., 2 h): highly responsive | dephosphorylation of cardiac troponin in cardiomyocytes [2]: induces dephosphorylation | PP2A activation (PP2A): known activator | L-type Ca2+ channel activity (L-type Ca2+ channel): depressed | proliferation of T-cells stimulated by growth signals (T-cells): inhibited proliferation | pre-conditioning effects in heart (heart): pre-conditioning effects

CCCCCCCCCCCCC/C=C/[C@@H](O)[C@H](CO)NC(=O)CCCCC [C6 ceramide, N-Hexanoyl-D-erythro-sphingosine]
effect activating Pak1 compared with sphingosine-1 [1]: stronger effect than sphingosine-1 | autophosphorylation of Pak1 ([1]; 37° C., 2 h): highly responsive | dephosphorylation of cardiac troponin in cardiomyocytes [2]: induces dephosphorylation

CCCCCCCCCCCCC/C=C/[C@@H](O)[C@@H](N)CO [D-Sphingosine-1, D-erythro-sphingosine]
Autophosphorylation of the purified Pak1 ([1]; in the presence of 50 and 100 μM, 37° C., 2 h): increased

CCCCCCCCc1ccc(CCC(N)(CO)CO)cc1 [FTY720, fingolimod]
cardiac effect (heart rate) (heart rate): decrease of heart rate

CCCCCCCCCCCCCCC[C@H](O)[C@@H](N)CO [saphingol, Dihydro-L-threo-sphingosine]
autophosphorylation of Pak1 ([1]; 37° C., 2 h): only slightly regulated | autophosphorylation of Pak1 ([1]; 37° C., 2 h, listed as Saphingosine): small stimulatory effect

CCCCCCCCCCCCC/C=C/[C@@H](O)[C@@H](N)COP(=O)(O)O [sphingosine-1 phosphate, sphingosine 1-phosphate]
effect on autophosphorylation of Pak1 ([1]; at 25 and 50 μM, 37° C., 2 h): no significant effect | Pak1 autophosphorylation ([1]; at 100 and 200 μM, 37° C., 2 h): increase

YNSKKTSNSQKYMSFTDKSA [decoy peptide]
autophosphorylation of Pak1 ([1]; 37° C., 2 h): slightly inhibited | total kinase activity in the presence of the decoy peptide ([1]; data not shown): slight increase

B1: Pak1 purified from bovine ventricle muscle (p21 activated kinase-1) (protein)
chain: SNNGLDIQDKPPAPPMRNTSTMIGAGSKDAGTLNHGSKPLPPNPEEKKKKDRFYRAILPGDKTNKKKEKERPEISLPSDFEHTIHVGFDAVTGEFTGMPEQWARLLQTSNITKSEQKKNPQAVLDVLEFYNSKKTSNSQKYMSFTDKSAEDYNSSNTLNVKAVSETPAVPPVSEDEDDDDDGTPPPVIAPRPEHTKSVYTRSVIEPLPITPTRDVATSPISPTENNTTPPDALTRNTEKQKKKPKMSDEEILEKLRSIVSVGDPKKKYTRFEKIGQGASGTVYTAMDVATGQEVAIKQMNLQQQPKKELIINEILVMRENKNPNIVNYLDSYLVGDELWVVMEYLAGGSLTDVVTETCMDEGQIAAVCRECLQALEFLHSNQVIHRDIKSDNILLGMDGSVKLTDFGFCAQITPEQSKRSTMVGTPYWMAPEVVTRKAYGPKVDIWSLGIMAIEMIEGEPPYLNENPLRALYLIATNGTPELQNPEKLSAIFRDFLNRCLEMDVEKRGSAKELLQHQFLKIAKPLSSLTPLIAAAKEATKNNH
autophosphorylation of Pak1 [3]: The decoy peptide slightly inhibited autophosphorylation of Pak1
